{
  "source": "ChEMBL document CHEMBL1201862",
  "about": "“PubChem BioAssay data set” (2004)",
  "assay_in_all_cases": "DTP human tumour cell line panel, 48 h",
  "key": {"DMS-273": {"system": "DMS-273"}, "OVCAR-4": {"system": "OVCAR-4"}, "NCI-H460": {"system": "NCI-H460"}, "786-0": {"system": "786-0"}, "RXF 393": {"system": "RXF 393"}, "OVCAR-3": {"system": "OVCAR-3"}, "SK-OV-3": {"system": "SK-OV-3"}, "LOX IMVI": {"system": "LOX IMVI"}, "SW-620": {"system": "SW-620"}, "CAKI-1": {"system": "CAKI-1"}, "HOP-62": {"system": "HOP-62"}, "CCRF-CEM": {"system": "CCRF-CEM"}, "EKVX": {"system": "EKVX"}, "Malme-3M": {"system": "Malme-3M"}, "SNB-75": {"system": "SNB-75"}, "HCT-15": {"system": "HCT-15"}, "RPMI-8226": {"system": "RPMI-8226"}, "K562": {"system": "K562"}, "SF-268": {"system": "SF-268"}, "RXF 631": {"system": "RXF 631"}, "SNB-19": {"system": "SNB-19"}, "OVCAR-8": {"system": "OVCAR-8"}, "IGROV-1": {"system": "IGROV-1"}, "M14": {"system": "M14"}, "SK-MEL-28": {"system": "SK-MEL-28"}, "HL-60": {"system": "HL-60"}, "UACC-257": {"system": "UACC-257"}, "SR": {"system": "SR"}, "NCI-H23": {"system": "NCI-H23"}, "U-251": {"system": "U-251"}, "NCI-H226": {"system": "NCI-H226"}, "HCT-116": {"system": "HCT-116"}, "SK-MEL-5": {"system": "SK-MEL-5"}, "KM-20L2": {"system": "KM-20L2"}, "SNB-78": {"system": "SNB-78"}, "LXFL 529": {"system": "LXFL 529"}, "DLD-1": {"system": "DLD-1"}, "HT-29": {"system": "HT-29"}, "A549": {"system": "A549"}, "UO-31": {"system": "UO-31"}, "COLO 205": {"system": "COLO 205"}, "M19-MEL": {"system": "M19-MEL"}, "MOLT-4": {"system": "MOLT-4"}, "HOP-92": {"system": "HOP-92"}, "SF-295": {"system": "SF-295"}, "NCI-H522": {"system": "NCI-H522"}, "TK-10": {"system": "TK-10"}, "ACHN": {"system": "ACHN"}, "OVCAR-5": {"system": "OVCAR-5"}, "UACC-62": {"system": "UACC-62"}, "DMS-114": {"system": "DMS-114"}, "KM12": {"system": "KM12"}, "A498": {"system": "A498"}},
  "note": "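Growth conditions: 96-well plates. Treatment: test compound, 48 hours, 5 concentrations. Analysis: linear interpolation between bracketing concentrations; unreached endpoints set to highest concentration. Abbreviation: GI50, concentration required for 50% inhibition of growth.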 Active and inactive are the calls of the source. Rule as the data show it: active = GI50 up to about 1.1 µM and inactive = higher.",
  "data": [
    {"smiles": "CN1C(c2ccccc2)CC(=Nc2ccccc2)CC1c1ccccc1", "note": "(configuration not stated)", "values": [
      {"measurement": "GI50", "setting": "DMS-273", "value": "8.79 µM (inactive)"},
      {"measurement": "GI50", "setting": "OVCAR-4", "value": "10.4 µM (inactive)"},
      {"measurement": "GI50", "setting": "NCI-H460", "value": "13.5 µM (inactive)"},
      {"measurement": "GI50", "setting": "786-0", "value": "14.2 µM (inactive)"},
      {"measurement": "GI50", "setting": "RXF 393", "value": "16.6 µM (inactive)"},
      {"measurement": "GI50", "setting": "OVCAR-3", "value": "8.93 µM (inactive)"},
      {"measurement": "GI50", "setting": "SK-OV-3", "value": "2.95 µM (inactive)"},
      {"measurement": "GI50", "setting": "LOX IMVI", "value": "4.48 µM (inactive)"},
      {"measurement": "GI50", "setting": "SW-620", "value": "10.8 µM (inactive)"},
      {"measurement": "GI50", "setting": "CAKI-1", "value": "17.5 µM (inactive)"},
      {"measurement": "GI50", "setting": "HOP-62", "value": "18 µM (inactive)"},
      {"measurement": "GI50", "setting": "CCRF-CEM", "value": "16.2 µM (inactive)"},
      {"measurement": "GI50", "setting": "EKVX", "value": "16.2 µM (inactive)"},
      {"measurement": "GI50", "setting": "Malme-3M", "value": "10.8 µM (inactive)"},
      {"measurement": "GI50", "setting": "SNB-75", "value": "16.7 µM (inactive)"},
      {"measurement": "GI50", "setting": "HCT-15", "value": 16.1, "unit": "µM"},
      {"measurement": "GI50", "setting": "RPMI-8226", "value": "2.98 µM (inactive)"},
      {"measurement": "GI50", "setting": "K562", "value": "13.2 µM (inactive)"},
      {"measurement": "GI50", "setting": "SF-268", "value": "10.8 µM (inactive)"},
      {"measurement": "GI50", "setting": "RXF 631", "value": "20.5 µM (inactive)"},
      {"measurement": "GI50", "setting": "SNB-19", "value": "14.3 µM (inactive)"},
      {"measurement": "GI50", "setting": "OVCAR-8", "value": "6.97 µM (inactive)"},
      {"measurement": "GI50", "setting": "IGROV-1", "value": "12.6 µM (inactive)"},
      {"measurement": "GI50", "setting": "M14", "value": "13.5 µM (inactive)"},
      {"measurement": "GI50", "setting": "SK-MEL-28", "value": "10.8 µM (inactive)"},
      {"measurement": "GI50", "setting": "HL-60", "value": "2.61 µM (inactive)"},
      {"measurement": "GI50", "setting": "UACC-257", "value": "10.4 µM (inactive)"},
      {"measurement": "GI50", "setting": "SR", "value": "10.9 µM (inactive)"},
      {"measurement": "GI50", "setting": "NCI-H23", "value": "15.6 µM (inactive)"},
      {"measurement": "GI50", "setting": "U-251", "value": "6.82 µM (inactive)"},
      {"measurement": "GI50", "setting": "NCI-H226", "value": "11.7 µM (inactive)"},
      {"measurement": "GI50", "setting": "HCT-116", "value": "4.91 µM (inactive)"},
      {"measurement": "GI50", "setting": "SK-MEL-5", "value": "10.9 µM (inactive)"},
      {"measurement": "GI50", "setting": "KM-20L2", "value": "13.3 µM (inactive)"},
      {"measurement": "GI50", "setting": "SNB-78", "value": "15 µM (inactive)"},
      {"measurement": "GI50", "setting": "LXFL 529", "value": "4.46 µM (inactive)"},
      {"measurement": "GI50", "setting": "DLD-1", "value": "10.6 µM (inactive)"},
      {"measurement": "GI50", "setting": "HT-29", "value": "8.67 µM (inactive)"},
      {"measurement": "GI50", "setting": "A549", "value": "11.5 µM (inactive)"},
      {"measurement": "GI50", "setting": "UO-31", "value": "20.7 µM (inactive)"},
      {"measurement": "GI50", "setting": "COLO 205", "value": "10.7 µM (inactive)"},
      {"measurement": "GI50", "setting": "M19-MEL", "value": "4.58 µM (inactive)"},
      {"measurement": "GI50", "setting": "MOLT-4", "value": "7.13 µM (inactive)"},
      {"measurement": "GI50", "setting": "HOP-92", "value": "7.78 µM (inactive)"},
      {"measurement": "GI50", "setting": "SF-295", "value": "15.6 µM (inactive)"},
      {"measurement": "GI50", "setting": "NCI-H522", "value": "4.65 µM (inactive)"},
      {"measurement": "GI50", "setting": "TK-10", "value": "19.2 µM (inactive)"}
    ]},
    {"smiles": "CCN(CC)CSc1nc2ccccc2o1", "values": [
      {"measurement": "GI50", "setting": "DMS-273", "value": "> 100 µM (inactive)"},
      {"measurement": "GI50", "setting": "NCI-H460", "value": "> 100 µM (inactive)"},
      {"measurement": "GI50", "setting": "ACHN", "value": "> 100 µM (inactive)"},
      {"measurement": "GI50", "setting": "RXF 393", "value": "> 100 µM (inactive)"},
      {"measurement": "GI50", "setting": "SK-OV-3", "value": "> 100 µM (inactive)"},
      {"measurement": "GI50", "setting": "HOP-62", "value": "> 100 µM (inactive)"},
      {"measurement": "GI50", "setting": "CCRF-CEM", "value": "> 100 µM (inactive)"},
      {"measurement": "GI50", "setting": "EKVX", "value": "> 100 µM (inactive)"},
      {"measurement": "GI50", "setting": "OVCAR-5", "value": "> 100 µM (inactive)"},
      {"measurement": "GI50", "setting": "UACC-62", "value": "> 100 µM (inactive)"},
      {"measurement": "GI50", "setting": "RXF 631", "value": "> 100 µM (inactive)"},
      {"measurement": "GI50", "setting": "SNB-19", "value": "> 100 µM (inactive)"},
      {"measurement": "GI50", "setting": "OVCAR-8", "value": "> 100 µM (inactive)"},
      {"measurement": "GI50", "setting": "IGROV-1", "value": "> 100 µM (inactive)"},
      {"measurement": "GI50", "setting": "M14", "value": "> 100 µM (inactive)"},
      {"measurement": "GI50", "setting": "SK-MEL-28", "value": "> 100 µM (inactive)"},
      {"measurement": "GI50", "setting": "HL-60", "value": "> 100 µM (inactive)"},
      {"measurement": "GI50", "setting": "UACC-257", "value": "> 100 µM (inactive)"},
      {"measurement": "GI50", "setting": "SR", "value": "> 100 µM (inactive)"},
      {"measurement": "GI50", "setting": "NCI-H23", "value": "> 100 µM (inactive)"},
      {"measurement": "GI50", "setting": "U-251", "value": "> 100 µM (inactive)"},
      {"measurement": "GI50", "setting": "HCT-116", "value": "> 100 µM (inactive)"},
      {"measurement": "GI50", "setting": "DMS-114", "value": "> 100 µM (inactive)"},
      {"measurement": "GI50", "setting": "KM12", "value": "> 100 µM (inactive)"},
      {"measurement": "GI50", "setting": "SNB-78", "value": "> 100 µM (inactive)"},
      {"measurement": "GI50", "setting": "A498", "value": "> 100 µM (inactive)"},
      {"measurement": "GI50", "setting": "HT-29", "value": "> 100 µM (inactive)"},
      {"measurement": "GI50", "setting": "A549", "value": "> 100 µM (inactive)"},
      {"measurement": "GI50", "setting": "UO-31", "value": "> 100 µM (inactive)"},
      {"measurement": "GI50", "setting": "M19-MEL", "value": "> 100 µM (inactive)"},
      {"measurement": "GI50", "setting": "MOLT-4", "value": "> 100 µM (inactive)"},
      {"measurement": "GI50", "setting": "HOP-92", "value": "> 100 µM (inactive)"},
      {"measurement": "GI50", "setting": "SF-295", "value": "> 100 µM (inactive)"},
      {"measurement": "GI50", "setting": "NCI-H522", "value": "> 100 µM (inactive)"},
      {"measurement": "GI50", "setting": "TK-10", "value": "> 100 µM (inactive)"}
    ]}
  ]
}
